Results from patent US11091476B2, “Protein kinase inhibitors, preparation method and medical use thereof” (Gan & Lee Pharmaceuticals, priority 2015, dated 2021).

Tests used:
Format in all cases: biochemical
[1] = target: CDK6/CyclinD3 (Homo sapiens (Human), UniProt Q00534); assay: CDK kinase inhibitory activity, ADP-Glo Kinase Assay, CDK6/CyclinD3; conditions: for CDK1/CDK6 / CDK9/CDK6 / Pim-1/CDK6: ratio of IC50s; for CDK1/CDK6: selectivity for CDK6 over CDK1; for CDK9/CDK6: selectivity for CDK6 over CDK9; for Pim-1/CDK6: selectivity for CDK6 over Pim-1
Procedure: (§1) Measurement of CDK kinase inhibitory activity of the compounds of this disclosure.
(§2) In vitro inhibitory effect of the compounds of the disclosure on CDK (CDK1, CDK4 and CDK6) kinase activity was tested by the following method.
(§3) 1.1 Instrument and Kit Information
(§4) 1.2 Experimental Preparation • 1.2.1 Preparation of Kinase Reaction Buffer I: The 5×Reaction Buffer A (Promega; V307A-C) provided in the kit was mixed and diluted with MILLI-Q® H2O and 0.1 M DTT (dithiothreitol) to give 4× kinase buffer, and then MILLI-Q® H2O was further added to finally formulate the solution into 1× Kinase buffer.
(§5) 1 μl of 10 mM standard substance stock solution was taken and added to 9 μl of kinase reaction buffer I and mixed well; then 90 μl of kinase reaction buffer I was added and mixed well; then 100 μl of kinase reaction buffer I was added and mixed well. The final concentration was 50 μM. • b. 40 μl of kinase reaction buffer II was added into B2 to B10 of a 96-well plate, and 50 μl of the above solution was added into B1; • c. 10 μl of solution was taken from well B1, added into B2, and mixed well; then 10 μl of the resulting solution was taken and added into B3, and dilution was carried out in sequence to B9, so as to obtain control solutions that are diluted by 5-fold sequentially. • (2) Preparation of test compound solution: • a. Test compound solutions at a certain concentration were taken, respectively, diluted with kinase reaction buffer I to a final concentration of 50 μM compound solution; • b. 40 μl of kinase reaction buffer II was added into H2 to H10 of the 96-well plate; and 50 μl of the above solution was added into H1; • c. 10 μl of solution was taken from well H1, added into H2, and mixed well; then 10 μl of the resulting solution was taken and added into H3, and dilution was carried out in sequence to H9, so as to obtain test compound solutions that are diluted by 5-fold sequentially. • 1.2.4 Preparation of a mixed solution of reaction substrate and ATP: • a. Preparation of ATP solution: • 200 μl of 0.1 mM ATP solution: 2 μl of 10 mM ATP was added to 198 μl of kinase reaction buffer I; • 300 μl of 50 μM ATP solution: 150 μl of kinase reaction buffer I was added to 150 μl of the above 0.1 mM ATP solution; • b. Preparation of 300 μl of reaction substrate solution: • 150 μl 1 μg/μl reaction substrate stock solution was added to 150 μl kinase reaction buffer I, and mixed well; • c. The above a/b solutions were mixed to obtain mixed solutions, respectively.
(§6) 1.3 Experimental process: • 1.3.1: 2 μl of compound solutions of various concentrations were taken, added to a 384-well plate, and centrifuged 3 minutes; • 1.3.2: 4 μl of kinase solution was added to each well, centrifuged at 5000 rpm and 18° C. for 10 minutes, and shaken on a plate shaker for 10 minutes; • 1.3.3: 4 μl of mixed solution of substrate and ATP was added to each well, centrifuged at 5000 rpm and 18° C. for 10 minutes, and shaken on a plate shaker at 37° C. for 90 minutes; • 1.3.4: The 384-well plate was taken out, and allowed to stand to room temperature; • 1.3.5: 10 μl of ADP-GLO™ reagent was added to each well, centrifuged at 5000 rpm and 18° C. for 18 minutes, and shaken on a plate shaker at 25° C. for 40 minutes, and then the reaction was stopped; • 1.3.6: 20 μl of kinase detection reagent was added to each well, centrifuged at 5000 rpm and 18° C. for 10 minutes, and shaken on a plate shaker at 25° C. for 30 minutes; and • 1.3.7: M1000pro MICROPLATE READER was used to read […] values.
(§7) The inhibition rate of each compound at each concentration point was calculated by the formula as follows and curve fitting was performed by GraphPad Prism 5 software to obtain the IC50 value.

[2] = target: CDK1/CyclinA2 (Homo sapiens (Human), UniProt P06493); assay: CDK kinase inhibitory activity, ADP-Glo Kinase Assay, CDK1/CyclinA2
Procedure: as §1, §2, §3, §4, §5, §6, §7

[3] = target: CDK9/CyclinD3 (Homo sapiens (Human), UniProt P50750); assay: Kinase inhibitory activity, ADP-Glo Kinase Assay, CDK9/CyclinD3
Procedure: as §3, §4, §5, §6, §7

[4] = target: Pim-1 (Homo sapiens (Human), UniProt P11309); assay: Kinase inhibitory activity on Pim-1
Procedure: as §4, §5, §6, §7

| Compound | IC50 [1] | CDK1/CDK6 [1] | CDK9/CDK6 [1] | IC50 [2] | IC50 [3] | Pim-1/CDK6 [1] | IC50 [4] |
| --- | --- | --- | --- | --- | --- | --- | --- |
| CC1=Nc2c(F)cc(-c3nc(Nc4ccc(N5CCN(CCO)CC5)cn4)ncc3F)cc2C12CCCC2 [Example 28, 2-(4-(6-((5-fluoro-4-(7′-fluoro-2′-methylspiro[cyclopentane-1,3′-indol]-5′-yl)pyrimidin-2-yl)amino)pyridin-3-yl)piperazin-1-yl)ethanol] | 0.00624 µM | 52.63 | 0.15 | 0.328 µM | 0.00096 µM | – | – |
| CC1=Nc2c(F)cc(-c3nc(Nc4ccc(C5CCN(CCO)CC5)cn4)ncc3F)cc2C12CCCC2 [Example 30, 2-(4-(6-((5-fluoro-4-(7′-fluoro-2′-methylspiro[cyclopentane-1,3′-indol]-5′-yl)pyrimidin-2-yl)amino)pyridin-3-yl)piperidin-1-yl)ethanol] | 0.00049 µM | 360.37 | 0.88 | 0.177 µM | 0.00043 µM | – | – |
| CCN1CCN(Cc2ccc(Nc3ncc(F)c(-c4cc(F)c5c(c4)C(CC)(CC)C(C)=N5)n3)nc2)CC1 [Example 10] | 0.0471 µM | 9.25 | 0.57 | 0.436 µM | 0.027 µM | – | – |
| CCN1CCN(Cc2ccc(Nc3ncc(F)c(-c4ccc5c(c4)C4(CCCC4)C(C)=N5)n3)nc2)CC1 [Example 9, N-(5-((4-ethylpiperazin-1-yl)methyl)pyridin-2-yl)-5-fluoro-4-(2′-methylspiro [cyclopentane-1,3′-indol]-5′-yl)pyrimidine-2-amino] | 0.0204 µM | 13.13 | 0.71 | 0.268 µM | 0.0144 µM | 8.51 | 0.174 µM |
| CCN1CCN(Cc2ccc(Nc3ncc(F)c(-c4cc(F)c5c(c4)C4(CCCC4)C(C)=N5)n3)nc2)CC1 [Example 3] | 0.0791 µM | – | – | – | – | – | 0.198 µM |
| CCC1(C)C(C)=Nc2c(F)cc(-c3nc(Nc4ccc(N5CCNCC5)cn4)ncc3F)cc21 (centres unmarked) [Example 7, 4-(3-ethyl-7-fluoro-2,3-dimethyl-3H-indol-5-yl)-5-fluoro-N-(5-(piperazin-1-yl)pyridin-2-yl)pyrimidine-2-amino] | 0.00326 µM | 25.71 | 1.40 | – | 0.00458 µM | 141.53 | 0.461 µM |
| CCN1CCN(c2ccc(Nc3ncc(F)c(-c4ccc5c(c4)C4(CCCC4)C(C)=N5)n3)nc2)CC1 [Example 22, N-(5-(4-ethylpiperazin-1-yl)pyridin-2-yl)-5-fluoro-4-(2′-methylspiro[cyclopentane-1,3′-indol]-5′-yl)pyrimidine-2-amino] | 0.0525 µM | 17.43 | 0.009 | 0.915 µM | 0.0005 µM | – | – |
| CC1=Nc2c(F)cc(-c3nc(Nc4ccc(CN5CCN(C)CC5)cn4)ncc3F)cc2C12CCCC2 [Example 43, 5-Fluoro-4-(7′-fluoro-2′-methylspiro[cyclopentane-1,3′-indol]-5′-yl)-N-(5-((4-methylpiperazin-1-yl)methyl)pyridin-2-yl)pyrimidine-2-amino] | 0.0009 µM | 298.78 | – | 0.269 µM | – | – | – |
| CC1=Nc2ccc(-c3nc(Nc4ccc(C5CCNCC5)cn4)ncc3F)cc2C12CCCC2 [Example 15, 5-fluoro-4-(2′-methylspiro[cyclopentane-1,3′-indol]-5′-yl)-N-(5-(piperidin-4-yl)pyridin-2-yl)pyrimidine-2-amino] | 0.00431 µM | 6.25 | – | 0.0269 µM | – | – | – |
| CCC1(C)C(C)=Nc2ccc(-c3nc(Nc4ccc(C5CCN(C)CC5)cn4)ncc3F)cc21 (centres unmarked) [Example 35, 4-(3-ethyl-2,3-dimethyl-3H-indol-5-yl)-5-fluoro-N-(5-(1-methylpiperidin-4-yl)-pyridin-2-yl)pyrimidine-2-amino] | 0.00874 µM | 7.33 | – | 0.064 µM | – | – | – |
| CC1=Nc2c(F)cc(-c3nc(Nc4ccc(N5CCNCC5)cn4)ncc3F)cc2C1(C)C [Example 1, 5-fluoro-4-(7-fluoro-2,3,3-trimethyl-3H-indol-5-yl)-N-(5-(piperazin-1-yl)pyridin-2-yl)pyrimidine-2-amino] | 0.043 µM | 51.68 | 5.69 | – | 0.245 µM | 5.12 | 0.22 µM |
| CCC1(C)C(C)=Nc2c(F)cc(-c3nc(Nc4ccc(N5CCN(C)CC5)cn4)ncc3F)cc21 (centres unmarked) [Example 18, 4-(3-ethyl-7-fluoro-2,3-dimethyl-3H-indol-5-yl)-5-fluoro-N-(5-(4-methylpiperazin-1-yl)pyridin-2-yl)pyrimidine-2-amino] | 0.00274 µM | 69.29 | 0.36 | 0.19 µM | 0.001 µM | – | – |
| CCC1(CC)C(C)=Nc2c(F)cc(-c3nc(Nc4ccc(N5CCN(C)CC5)cn4)ncc3F)cc21 [Example 16, 4-(3,3-diethyl-7-fluoro-2-methyl-3H-indol-5-yl)-5-fluoro-N-(5-(4-methylpiperazin-1-yl)pyridin-2-yl)pyrimidine-2-amino] | 0.00902 µM | 10.61 | 1.81 | – | 0.0164 µM | 76.10 | 0.686 µM |
| CCN1CCC(c2ccc(Nc3ncc(F)c(-c4cc(F)c5c(c4)C(C)(CC)C(C)=N5)n3)nc2)CC1 (centres unmarked) [Example 26, 4-(3-ethyl-7-fluoro-2,3-dimethyl-3H-indol-5-yl)-N-(5-(1-ethylpiperidin-4-yl)pyridin-2-yl)-5-fluoropyrimidine-2-amino] | 0.0125 µM | 17.27 | 0.88 | – | 0.011 µM | – | – |
| CC1=Nc2c(F)cc(-c3nc(Nc4ccc5c(n4)CCN(C(=O)CO)C5)ncc3F)cc2C12CCCC2 [Example 40, 1-(2-((5-fluoro-4-(7′-fluoro-2′-methylspiro[cyclopentane-1,3′-indol]-5′-yl)pyrimidin-2-yl)amino)-7,8-dihydro-1,6-naphthyridine-6 (5H)-yl)-2-hydroxyacetamide] | 0.025 µM | 6.47 | – | 0.162 µM | – | – | – |
| CC1=Nc2c(F)cc(-c3nc(Nc4ccc(N5CCN(C)CC5)cn4)ncc3F)cc2C12CCCC2 [Example 20, 5-Fluoro-4-(7′-fluoro-2′-methylspiro[cyclopentane-1,3′-indol]-5′-yl)-N-(5-(4-methylpiperazin-1-yl)pyridin-2-yl)pyrimidine-2-amino] | 0.0876 µM | 16.49 | 0.003 | 1.44 µM | 0.00024 µM | – | – |
| CC1=Nc2ccc(-c3nc(Nc4ccc(N5CCN(C)CC5)cn4)ncc3F)cc2C12CCCC2 [Example 25, 5-Fluoro-N-(5-(4-methylpiperazin-1-yl)pyridin-2-yl)-4-(2′-methylspiro [cyclopentane-1,3′-indol]-5′-yl)pyrimidine-2-amino] | 0.00878 µM | 47.51 | 0.12 | 0.417 µM | 0.00109 µM | – | – |
| CC1=Nc2ccc(-c3nc(Nc4ccc(N5CCNCC5)cn4)ncc3F)cc2C12CCCC2 [Example 14, 5-fluoro-4-(2′-methylspiro[cyclopentane-1,3′-indol]-5′-yl)-N-(5-(piperazin-1-yl)pyridin-2-yl)pyrimidine-2-amino] | 0.00407 µM | 57.40 | – | 0.234 µM | – | 7.03 | 0.0286 µM |
